Reference: PubChem BioAssay AID2060494 (Molecular Pharmacology Branch, DTP, NCI, 2025)
Values joined by “and” are separate entries in the source; they are usually repeats but may differ in a detail not shown here. Equal entries are not always repeated. Values belong to the molecule of their own block, whether it stands above or below them.

System: 435261-313-R-J1-PDC complex spheroid viability
Experiment: Anticancer human tumor 435261-313-R-J1-PDC patient-derived colon adenocarcinoma cell line growth inhibition [GQUAD]
Conditions: for viability, T/C: stronger effect = lower value
From the text: DNA G-quadruplex Stabilizer Agents in Combinations in Complex Spheroids
A high-throughput screen of multi-cell type tumor spheroids was designed to identify active combinations of DNA G-quadruplex stabilizer agents and targeted small molecules. Complex spheroids include a stromal component modeled by human endothelial cells (HUVEC) and fibroblasts modeled by human mesenchymal stem cells (MSCs). The concentration ranges selected for each drug and investigational agent were based upon clinically achievable concentrations if the clinical Cmax of the agent was known.
Compounds. The drugs and investigational agents: pidnarulex (CX-5461; NSC782164), APTO-253 (NSC789042), BRACO-19 (NSC847499), peposertib (NSC802822), ceralasertib (NSC780249), elimusertib (NSC800525), camonsertib (NSC841442), AZD-1390 (NSC803789), olaparib (NSC753686), talazoparib (NSC767125), ART-558 (NSC835418), sotorasib (NSC818433), MRTX-1133 (NSC836407), SN-38 (NSC673596), topotecan (NSC609699), etoposide (NSC141540), doxorubicin (NSC123127), gemcitabine (NSC613327), 5-fluorouracil (NSC19893), paclitaxel (NSC125973), vemurafenib (NSC761431), panobinostat (NSC761190), R-306465 (JNJ-16241199; NSC773264), adavosertib (NSC754352), TP-3654 (NSC805149), carboplatin (NSC241240), KSQ-4279 (NSC840948), and staurosporine (NSC755774) were obtained from the National Cancer Institute (NCI) Developmental Therapeutics Program Chemical Repository (34). The FDA-approved anticancer drug set is available from the NCI Developmental Therapeutics Program. […] The stock solutions were prepared in dimethyl sulfoxide (DMSO, Sigma-Aldrich, St. Louis, MO, cat. D2650) at 800-fold the tested concentration and stored at -70 degrees C prior to their use. All drugs and investigational agents were tested over a range starting from a high concentration at or near the clinical Cmax and decreasing in half-log increments. If the clinical Cmax for an agent had not been determined, the highest concentration tested was 10 microM.
2.3 Cell Culture. All cells were maintained in an incubator at 37 degrees C and 5% CO2 with 95% humidity. The PDC lines were cultured according to standard operating procedures established by the NCI PDMR. All PDCs were thawed and cultured in Matrigel-coated flasks prepared with a working solution of 1X Ham's F-12 nutrient mix, without supplementation (Invitrogen, cat. 11765054), 100 U/mL penicillin-streptomycin (Invitrogen, cat. 15140122), and 2.5% Matrigel (Corning Inc., cat. 354248) for the first three passages. The 857933-349-R-J2-PDC line was cultured in 6C/Colon 1B media, which includes advanced DMEM/F-12 (Thermo Fisher Scientific, cat. 12634028), 10 mM HEPES (Thermo Fisher Scientific, cat. 15630080), 1X GlutaMAX supplement (Thermo Fisher Scientific, cat. 35050061), 0.1 mg/mL primocin (InvivoGen, cat. ant-pm-2), 10% defined fetal bovine serum, heat inactivated (HyClone Laboratories Inc., cat. SH30070.03HI), 50% L-WRN conditioned media (ATCC, cat. CRL-3276), 1.25 mM N-Acetyl-L-cysteine (Sigma-Aldrich, cat. A9165), 10 mM nicotinamide (Sigma-Aldrich, cat. N0636), 1X B-27 supplement (Thermo Fisher Scientific, cat. 17504044), 1X N-2 supplement (Thermo Fisher Scientific, cat. 17502048), 10 microM Y-27632 dihydrochloride (Tocris Bioscience, cat. 1254), and 50 ng/mL human EGF recombinant protein (Thermo Fisher Scientific, cat. PHG0311). The 485176-168-R4-J1-PDC line was cultured in Panc media, which includes all 6C/Colon 1B media components plus 100 ng/mL human FGF-10 (Thermo Fisher Scientific, cat. 100-26), 500 nM SB-431542 (Selleckchem, cat. S1067), and gastrin (Tocris, cat. 3006).
[…]

[1] = curve of first compound, second compound 0.0316 µM
[2] = curve of first compound, second compound 0.1 µM
[3] = curve of first compound, second compound 0.316 µM
[4] = curve of first compound, second compound 1 µM
[5] = curve of first compound, second compound 3.16 µM
[6] = curve of first compound, second compound 10 µM
[7] = second compound 0.0316 µM, first compound 0.0316 µM
[8] = second compound 0.0316 µM, first compound 0.1 µM
[9] = second compound 0.0316 µM, first compound 0.316 µM
[10] = second compound 0.0316 µM, first compound 1 µM
[11] = second compound 0.0316 µM, first compound 3.16 µM
[12] = second compound 0.0316 µM, first compound 10 µM
[13] = second compound 0.1 µM, first compound 0.0316 µM
[14] = second compound 0.1 µM, first compound 0.1 µM
[15] = second compound 0.1 µM, first compound 0.316 µM
[16] = second compound 0.1 µM, first compound 1 µM
[17] = second compound 0.1 µM, first compound 3.16 µM
[18] = second compound 0.1 µM, first compound 10 µM
[19] = second compound 0.316 µM, first compound 0.0316 µM
[20] = second compound 0.316 µM, first compound 0.1 µM
[21] = second compound 0.316 µM, first compound 0.316 µM
[22] = second compound 0.316 µM, first compound 1 µM
[23] = second compound 0.316 µM, first compound 3.16 µM
[24] = second compound 0.316 µM, first compound 10 µM
[25] = second compound 1 µM, first compound 0.0316 µM
[26] = second compound 1 µM, first compound 0.1 µM
[27] = second compound 1 µM, first compound 0.316 µM
[28] = second compound 1 µM, first compound 1 µM
[29] = second compound 1 µM, first compound 3.16 µM
[30] = second compound 1 µM, first compound 10 µM
[31] = second compound 3.16 µM, first compound 0.0316 µM
[32] = second compound 3.16 µM, first compound 0.1 µM
[33] = second compound 3.16 µM, first compound 0.316 µM
[34] = second compound 3.16 µM, first compound 1 µM
[35] = second compound 3.16 µM, first compound 3.16 µM
[36] = second compound 3.16 µM, first compound 10 µM
[37] = second compound 10 µM, first compound 0.0316 µM
[38] = second compound 10 µM, first compound 0.1 µM
[39] = second compound 10 µM, first compound 0.316 µM
[40] = second compound 10 µM, first compound 1 µM
[41] = second compound 10 µM, first compound 3.16 µM
[42] = second compound 10 µM, first compound 10 µM
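Note: spheroids exposed to the agents for seven days before readout.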
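Throughout, for viability, T/C: percent of vehicle control viability with DMSO wells as 100%.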

SMILES: CC(=O)O[C@H]1C(=O)[C@@]2(C)[C@H]([C@H](OC(=O)c3ccccc3)[C@]3(O)C[C@H](OC(=O)[C@H](O)[C@@H](NC(=O)c4ccccc4)c4ccccc4)C(C)=C1C3(C)C)[C@]1(OC(C)=O)CO[C@@H]1C[C@@H]2O + Cc1[nH]c2ccc(F)cc2c1-c1nc2c3cccnc3c3ncccc3c2[nH]1
IC50 [1]: > 10 µM | IC50 [2]: > 10 µM | IC50 [3]: > 10 µM | IC50 [4]: < 0.0316 µM | IC50 [5]: < 0.0316 µM | IC50 [6]: < 0.0316 µM | viability, T/C [7]: 67.5% | viability, T/C [8]: 71.4% | viability, T/C [9]: 74.7% | viability, T/C [10]: 65.8% | viability, T/C [11]: 63.8% | viability, T/C [12]: 76.8% | viability, T/C [13]: 83.2% | viability, T/C [14]: 78.5% | viability, T/C [15]: 78.1% | viability, T/C [16]: 57.8% | viability, T/C [17]: 69.2% | viability, T/C [18]: 71% | viability, T/C [19]: 63.4% | viability, T/C [20]: 66.2% | viability, T/C [21]: 52.5% | viability, T/C [22]: 48.9% | viability, T/C [23]: 51% | viability, T/C [24]: 60% | viability, T/C [25]: 41.5% | viability, T/C [26]: 48.1% | viability, T/C [27]: 53% | viability, T/C [28]: 46.4% | viability, T/C [29]: 47.2% | viability, T/C [30]: 42.2% | viability, T/C [31]: 41.6% | viability, T/C [32]: 40.8% | viability, T/C [33]: 40.1% | viability, T/C [34]: 24.6% | viability, T/C [35]: 29% | viability, T/C [36]: 29.1% | viability, T/C [37]: 25.7% | viability, T/C [38]: 32.3% | viability, T/C [39]: 26.7% | viability, T/C [40]: 24.4% | viability, T/C [41]: 21.9% | viability, T/C [42]: 28%

IC50 (curve of compound): 0.656 µM and 0.293 µM
SMILES: COc1cccc2c1C(=O)c1c(O)c3c(c(O)c1C2=O)CC(O)(C(=O)CO)CC3OC1CC(N)C(O)C(C)O1 (stereo not given)
viability, T/C (compound 0.0316 µM): 94.1% and 85% | viability, T/C (compound 0.1 µM): 67.5% and 76.3% | viability, T/C (compound 0.316 µM): 74.4% and 44% | viability, T/C (compound 1 µM): 37% and 26.8% | viability, T/C (compound 3.16 µM): 2.3% and 1.87% | viability, T/C (compound 10 µM): 4.42% and 1.38%

SMILES: CN(C)c1ccc(Nc2c3ccc(NC(=O)CCN4CCCC4)cc3nc3cc(NC(=O)CCN4CCCC4)ccc23)cc1
viability, T/C (compound 3.16 µM): 63.9% [middle of 11 runs] | viability, T/C (compound 10 µM): 41.3% [middle of 11 runs]

SMILES: COc1ccc([C@@H](O)c2cc(-c3ncnc4cc(N5CCOCC5)ccc34)c(F)cc2Cl)nn1 + CN(C)c1ccc(Nc2c3ccc(NC(=O)CCN4CCCC4)cc3nc3cc(NC(=O)CCN4CCCC4)ccc23)cc1
IC50 [1]: 4.19 µM | IC50 [2]: 4.3 µM | IC50 [3]: 2.38 µM | IC50 [4]: 2.27 µM | IC50 [5]: 0.451 µM | IC50 [6]: 0.134 µM | viability, T/C [7]: 99% | viability, T/C [8]: 120% | viability, T/C [9]: 108% | viability, T/C [10]: 83.9% | viability, T/C [11]: 56.6% | viability, T/C [12]: 35.8% | viability, T/C [13]: 107% | viability, T/C [14]: 100% | viability, T/C [15]: 85.3% | viability, T/C [16]: 68.9% | viability, T/C [17]: 57.9% | viability, T/C [18]: 35.5% | viability, T/C [19]: 94.3% | viability, T/C [20]: 137% | viability, T/C [21]: 79.7% | viability, T/C [22]: 63.9% | viability, T/C [23]: 55.3% | viability, T/C [24]: 26.7% | viability, T/C [25]: 72% | viability, T/C [26]: 76.4% | viability, T/C [27]: 70.9% | viability, T/C [28]: 64.5% | viability, T/C [29]: 44.2% | viability, T/C [30]: 23.9% | viability, T/C [31]: 59.7% | viability, T/C [32]: 48% | viability, T/C [33]: 69% | viability, T/C [34]: 30% | viability, T/C [35]: 24.6% | viability, T/C [36]: 11.5% | viability, T/C [37]: 56.1% | viability, T/C [38]: 59.8% | viability, T/C [39]: 26.9% | viability, T/C [40]: 14.7% | viability, T/C [41]: 8.59% | viability, T/C [42]: 5.21%

IC50 (curve of compound): > 10 µM and 8.92 µM
SMILES: C=CCn1c(=O)c2cnc(Nc3ccc(N4CCN(C)CC4)cc3)nc2n1-c1cccc(C(C)(C)O)n1
viability, T/C (compound 0.0316 µM): 86.6% and 93% | viability, T/C (compound 0.1 µM): 114% and 97.5% | viability, T/C (compound 0.316 µM): 94.4% and 87.1% | viability, T/C (compound 1 µM): 74.3% and 105% | viability, T/C (compound 3.16 µM): 70.5% and 77.6% | viability, T/C (compound 10 µM): 57.6% and 47%
